{"source": "paper PMC11066877", "about": "“Development and Characterization of Novel FAP-Targeted Theranostic Pairs: A Bench-to-Bedside Study” (Research, 2023)", "key": {"[1]": {"test": "microPET/CT imaging, ROI analysis, HT1080-FAP tumor models", "format": "in vivo, mice", "conditions": "nude (thymus-free), mouse, intravenous", "procedure": "(§1) A human pancreatic cancer cell line BxPC-3 and a murine pancreatic cancer cell Panc-02 were obtained from the American Type Culture Collection. The pancreatic cancer cell line T3M-4 was purchased by MeisenCTCC (Zhejiang, China). BxPC-3 and T3M-4 cell lines were grown in RPMI 1640 medium (Shanghai BasalMedia Technologies Co., LTD.) containing 10% FBS (GE Healthcare, Chicago, IL, USA) and 1% penicillin–streptomycin solution (Invitrogen). To culture the Panc-02 cell line, a medium called Dulbecco’s modified Eagle medium from Shanghai BasalMedia Technologies Co., LTD. was used, which consisted of 10% FBS. The cell line HT-1080 was grown in MEM medium (Shanghai BasalMedia Technologies Co., LTD.) supplemented with 10% FBS, 1% penicillin-streptomycin solution, and 1% nonessential amino acids (NEAA-11140050; Gibco). A human fibrosarcoma cell line was stably transfected with FAP (HT1080-FAP) and cultured, as we previously described. All cell lines were cultured in a humid incubator with 5% CO2 at a temperature of 37 °C. Approval was granted by the Institutional Animal Care and Use Committee (Renji Hospital, School of Medicine, Shanghai Jiao Tong University) for all experimental protocols and procedures related to animal care. Panc-02 cells were implanted by subcutaneous injection of 5 × 10^6 tumor cells suspended in 100 μl PBS and matrigel matrix (Corning) with equal volume into the upper limb flank of C57BL/6 mice (Shanghai Sheng Chang Biotechnology Co., Ltd.). Four- to 6-week-old thymus-free nude mice (GemPharmatech) were subcutaneously inoculated with BxPC-3, T3M-4, HT-1080, and HT1080-FAP cells (5 × 10^6 in 100 μl of PBS mixing with 100 μl matrigel matrix) in the right shoulder. Follow-up microPET/CT imaging and ex vivo biodistribution experiments were performed when the tumor diameter reached 8 to 9 mm.\nMicroPET imaging was performed on isoflurane-anesthetized mice injected intravenously via the lateral tail vein with around 3 MBq (2.5 nmol) of the radioligand at certain times. Regarding the FD1 blocking group, an excessive amount of unlabeled FD1 (200-fold) was simultaneously injected with [^68Ga]Ga-DOTA-FD1 into the tail vein of another batch of mice. Images were acquired using an IRIS PET/CT system (Inviscan Imaging Systems). PET data were reconstructed using a nonscatter-corrected 3D-ordered subset expectation […]/maximum a posteriori (OSEM3D/MAP) algorithm. The information was analyzed using OsiriX Lite software (Pixmeo SARL) and Inveon Research Workplace (Siemens Preclinical Solutions). The percentage of injected dose per gram of tissue (%ID/g, mean ± SD) was utilized to present the distribution of tracers in the ROI, encompassing tumor, heart, lung, liver, kidney, and muscle."}, "[2]": {"test": "Safety and biodistribution of [68Ga]Ga-DOTA-FD1 in healthy volunteers and patients", "format": "in vivo, human", "procedure": "This clinical trial received ethical approval from the institutional review board of The First Affiliated Hospital of Xiamen University and has been registered at ClinicalTrials.gov (NCT04849247). All healthy volunteers (n = 3) and patients (n = 6) provided written informed consent before participation. There was no need for any particular preparation for [^68Ga]Ga-DOTA-FD1 PET/CT. Each participant was administered a dose of [^68Ga]Ga-DOTA-FD1 at a rate of 3.0 to 3.7 MBq/kg. Adverse events were under observation for 4 h after the injection of [^68Ga]Ga-DOTA-FD1. A hybrid PET/CT system (Discovery MI, GE Healthcare, Milwaukee, WI, USA) was used to perform static PET/CT imaging after 60 min of injection. PET/CT scan was conducted from the head region to the upper thighs (for [^68Ga]Ga-DOTA-FD1 PET/CT). For the CT scan, the parameters utilized were 110 kV, 80 mA, and a slice thickness measuring 3.75 mm. The obtained data were transferred to the Advantage Workstation (version AW 4.7, GE Healthcare). The Bayesian penalized likelihood reconstruction algorithm (Q.clear, GE Healthcare) was utilized for image reconstruction, employing a penalization factor (beta) of 500. […] In terms of quantitative assessment, the maximum standardized uptake value (SUVmax) and the mean SUV (SUVmean) were employed to quantify the uptake of the radiopharmaceutical in both normal organs and tumor tissues."}, "[3]": {"tested_on": "tumor lesions of patients", "test": "[68Ga]Ga-DOTA-FD1 PET/CT imaging in tumor patients", "format": "in vivo, human", "conditions": "for Lymph node metastases Median SUVmax (range) / Primary tumor Median SUVmax: initial staging", "procedure": "(§2) This clinical trial received ethical approval from the institutional review board of The First Affiliated Hospital of Xiamen University and has been registered at ClinicalTrials.gov (NCT04849247). All healthy volunteers (n = 3) and patients (n = 6) provided written informed consent before participation. There was no need for any particular preparation for [^68Ga]Ga-DOTA-FD1 PET/CT. Each participant was administered a dose of [^68Ga]Ga-DOTA-FD1 at a rate of 3.0 to 3.7 MBq/kg. Adverse events were under observation for 4 h after the injection of [^68Ga]Ga-DOTA-FD1. A hybrid PET/CT system (Discovery MI, GE Healthcare, Milwaukee, WI, USA) was used to perform static PET/CT imaging after 60 min of injection. PET/CT scan was conducted from the head region to the upper thighs (for [^68Ga]Ga-DOTA-FD1 PET/CT). For the CT scan, the parameters utilized were 110 kV, 80 mA, and a slice thickness measuring 3.75 mm. The obtained data were transferred to the Advantage Workstation (version AW 4.7, GE Healthcare). The Bayesian penalized likelihood reconstruction algorithm (Q.clear, GE Healthcare) was utilized for image reconstruction, employing a penalization factor (beta) of 500. For tumor staging/restaging, a total of 6 patients received paired PET/CT imaging using [^68Ga]Ga-DOTA-FD1. In terms of quantitative assessment, the maximum standardized uptake value (SUVmax) and the mean SUV (SUVmean) were employed to quantify the uptake of the radiopharmaceutical in both normal organs and tumor tissues."}, "[4]": {"test": "[68Ga]Ga-DOTA-FD1 PET/CT imaging in tumor patients", "format": "in vivo, human", "conditions": "human", "procedure": "as §2"}, "[5]": {"test": "microPET/CT imaging, ROI analysis, Panc-02 tumor models", "format": "in vivo, mice", "conditions": "C57BL/6, mouse, intravenous, 3 MBq, 1 h after tracer injection", "procedure": "as §1, with “Follow-up microPET/CT imaging and ex vivo biodistribution experiments were performed when the tumor diameter reached 8 to 9 mm.” left out\n(§3) MicroPET imaging was performed on isoflurane-anesthetized mice injected intravenously via the lateral tail vein with around 3 MBq (2.5 nmol) of the radioligand at certain times. […] The information was analyzed using OsiriX Lite software (Pixmeo SARL) and Inveon Research Workplace (Siemens Preclinical Solutions). […]"}, "[6]": {"test": "Ex vivo biodistribution after imaging, HT1080-FAP tumor models", "format": "in vivo, mice", "conditions": "nude (thymus-free), mouse, intravenous, total radioactivity", "procedure": "as §1\nAfter imaging collection and image reconstruction, samples from euthanized experimental mice, including blood and multiple significant organs, were harvested and weighed. The radioactivity in each collected tissue was counted using an automated gamma counter (Wizard 2480, PerkinElmer) and the accumulation of radioactivity in different tissues and organs was quantified and expressed as %ID/g (mean ± SD). [^177Lu]Lu-DOTA-FD1 (~1.11 MBq, n = 3), [^177Lu]Lu-DOTA-FD2 (~1.11 MBq, n = 3), and [^177Lu]Lu-DOTA-FD3 (~1.11 MBq, n = 3) were injected into the tail vein of free nude mice at 6 h, 24 h, and 24 h for ex vivo biodistribution to verify the circulation time of the 3 probes in vivo. Biodistribution data from tumor-bearing mice injected with [^177Lu]Lu-DOTA-FD3 at 45 h (~1.11 MBq, n = 4) and 90 h (~1.11 MBq, n = 3) validated the prolonged enrichment of the probe at the tumor site. At the end of each probe imaging and radioactivity counting study, tumor tissues were fixed in paraformaldehyde tissue fixative. Briefly, sections of 10 μm were cut and stained for H&E following the standard protocols. IHC staining with a FAP antibody (ab227703, Abcam) was performed only on tumor tissues following accepted techniques."}, "[7]": {"test": "microPET/CT imaging, ROI analysis, BxPC-3 tumor models", "format": "in vivo, mice", "conditions": "nude (thymus-free), mouse, intravenous, 3 MBq, 1 h after tracer injection", "procedure": "as §1, with “Follow-up microPET/CT imaging and ex vivo biodistribution experiments were performed when the tumor diameter reached 8 to 9 mm.” left out\nas §3"}, "[8]": {"test": "microPET/CT imaging, ROI analysis, HT-1080 tumor models", "format": "in vivo, mice", "conditions": "nude (thymus-free), mouse, intravenous, 3 MBq, 30 min p.i.", "procedure": "as §1, with “Follow-up microPET/CT imaging and ex vivo biodistribution experiments were performed when the tumor diameter reached 8 to 9 mm.” left out\nas §3"}, "[9]": {"test": "Ex vivo biodistribution after imaging, HT-1080 tumor models", "format": "in vivo, mice", "conditions": "nude (thymus-free), mouse, intravenous, 3 MBq, total radioactivity, after imaging at 30 min p.i., read-out: tumor uptake (biodistribution study)", "procedure": "A human pancreatic cancer cell line BxPC-3 and a murine pancreatic cancer cell Panc-02 were obtained from the American Type Culture Collection. The pancreatic cancer cell line T3M-4 was purchased by MeisenCTCC (Zhejiang, China). BxPC-3 and T3M-4 cell lines were grown in RPMI 1640 medium (Shanghai BasalMedia Technologies Co., LTD.) containing 10% FBS (GE Healthcare, Chicago, IL, USA) and 1% penicillin–streptomycin solution (Invitrogen). To culture the Panc-02 cell line, a medium called Dulbecco’s modified Eagle medium from Shanghai BasalMedia Technologies Co., LTD. was used, which consisted of 10% FBS. The cell line HT-1080 was grown in MEM medium (Shanghai BasalMedia Technologies Co., LTD.) supplemented with 10% FBS, 1% penicillin-streptomycin solution, and 1% nonessential amino acids (NEAA-11140050; Gibco). […]\nAfter imaging collection and image reconstruction, samples from euthanized experimental mice, including blood and multiple significant organs, were harvested and weighed. The radioactivity in each collected tissue was counted using an automated gamma counter (Wizard 2480, PerkinElmer) and the accumulation of radioactivity in different tissues and organs was quantified and expressed as %ID/g (mean ± SD). […] At the end of each probe imaging and radioactivity counting study, tumor tissues were fixed in paraformaldehyde tissue fixative. […]"}}, "note": "Like-named read-outs stand apart in the source and are kept apart here.", "data": [{"molecule": "CCCCCC(=O)N[C@H]1CSCc2cc(CSCCNC(=O)[C@H](CCCCN)NC(=O)[C@@H](NC(=O)[C@H](CCSC)NC(=O)CN3CCN(CC(=O)O)CCN(CC(=O)O)CCN(CC(=O)O)CC3)C(C)C)cc(c2)CSC[C@@H](C(=O)O)NC(=O)[C@H](Cc2ccccc2)NC(=O)[C@H](CCC(N)=O)NC(=O)[C@H]([C@@H](C)O)NC(=O)[C@@H]2CCCN2C(=O)[C@@H]2CCCN2C1=O", "note": "[[^68Ga]Ga-DOTA-FD1, metal not drawn]", "values": [{"measurement": "tissue uptake", "setting": "[1]; 750 ug, HT1080-FAP tumor, co-injected excess unlabeled FD1 (750 μg), read-out: tumor uptake (ROI analysis) upon FD1 blocking", "result": "2.63 ± 1.28", "unit": "%ID/g"}, {"measurement": "tissue uptake", "setting": "[1]; 3 MBq, HT1080-FAP tumor, without blocking, read-out: tumor uptake (ROI analysis)", "result": "8.85 ± 3.3", "unit": "%ID/g"}, {"measurement": "tissue uptake", "setting": "[1]; kidney, 750 ug, HT1080-FAP models, co-injected excess unlabeled FD1 (750 μg), read-out: kidney accumulation (ROI analysis) upon FD1 blocking", "result": "10.3 ± 1.67", "unit": "%ID/g"}, {"measurement": "tissue uptake", "setting": "[1]; kidney, 3 MBq, HT1080-FAP models, without blocking, read-out: kidney accumulation (ROI analysis)", "result": "40.6 ± 4.76", "unit": "%ID/g"}, {"measurement": "uptake in normal tissues and organs", "setting": "[2]; healthy volunteers (n = 3), PET 60 min after injection", "result": "negligible uptake in normal tissues and organs except the kidneys"}, {"measurement": "adverse events", "setting": "[2]; healthy volunteers and patients, during the injection and at 4 h follow-up, 3.0 to 3.7 MBq/kg", "result": "No adverse events were observed"}, {"measurement": "Bone and visceral metastases Median SUVmax (range)", "setting": "[3]; Patient 1, thyroid cancer, recurrence detection", "result": "2.87 (2.52–4.45)"}, {"measurement": "Lymph node metastases Median SUVmax (range)", "setting": "[3]; Patient 3, esophagus cancer", "result": "4.29 (4.02–4.57)"}, {"measurement": "Primary tumor Median SUVmax", "setting": "[3]; Patient 3, esophagus cancer", "result": 7.64}, {"measurement": "Lymph node metastases Median SUVmax (range)", "setting": "[3]; Patient 4, NPC", "result": "5.67 (4.14–7.76)"}, {"measurement": "Primary tumor Median SUVmax", "setting": "[3]; Patient 4, NPC", "result": 5.27}, {"measurement": "Primary tumor Median SUVmax", "setting": "[3]; Patient 5, esophagus cancer", "result": 10.07}, {"measurement": "Primary tumor Median SUVmax", "setting": "[3]; Patient 6, esophagus cancer", "result": 13.42}, {"measurement": "SUV at 1 h", "setting": "[4]; primary tumour lesions, 4 primary lesions, initial staging patients, 60 min after injection, read-out: median SUVmax of primary lesions", "result": 8.86, "unit": "SUV"}, {"measurement": "SUV at 1 h", "setting": "[4]; 15 lymph node metastases in 3 patients, read-out: median SUVmax of lymph node metastases", "result": 5.6, "unit": "SUV"}, {"measurement": "tissue uptake at 1 h", "setting": "[5]", "result": "0.92 ± 0.22", "unit": "%ID/g"}, {"measurement": "tissue uptake", "setting": "[6]; 750 ug, HT1080-FAP tumor, co-injected excess unlabeled FD1 (750 μg), read-out: tumor uptake (biodistribution) upon FD1 blocking", "result": "2.15 ± 0.58", "unit": "%ID/g"}, {"measurement": "tissue uptake", "setting": "[6]; 3 MBq, HT1080-FAP tumor, without blocking, read-out: tumor uptake (biodistribution study)", "result": "19.2 ± 6.51", "unit": "%ID/g"}, {"measurement": "tissue uptake", "setting": "[6]; kidney, 750 ug, HT1080-FAP models, co-injected excess unlabeled FD1 (750 μg), read-out: kidney accumulation (biodistribution analysis) upon FD1 blocking", "result": "30.3 ± 4.45", "unit": "%ID/g"}, {"measurement": "tissue uptake", "setting": "[6]; kidney, 3 MBq, HT1080-FAP models, without blocking, read-out: kidney accumulation (biodistribution analysis)", "result": "110 ± 27.1", "unit": "%ID/g"}, {"measurement": "tissue uptake at 1 h", "setting": "[7]", "result": "0.96 ± 0.07", "unit": "%ID/g"}, {"measurement": "tissue uptake at 0.5 h", "setting": "[8]", "result": "1.97 ± 0.45", "unit": "%ID/g"}, {"measurement": "tissue uptake at 0.5 h", "setting": "[9]", "result": "1.02 ± 0.41", "unit": "%ID/g"}]}]}
